Data on 15 compounds can be found in ChEMBL document CHEMBL1201862, “PubChem BioAssay data set” (2004).

Activity calls are given as the source filed them.

One may read the EC50 as the concentration at which the effect is half-maximal. Usually CC50 stands for the concentration at which the toxic effect on the cells reaches its halfway point. A word on the AC50: it is the concentration at which the activity in the assay is half-maximal.

Test [1] deals with T1, Short transient receptor potential channel 4 (Mus musculus, UniProt Q9QUQ5).
T1 sequence (Q9QUQ5 whole entry): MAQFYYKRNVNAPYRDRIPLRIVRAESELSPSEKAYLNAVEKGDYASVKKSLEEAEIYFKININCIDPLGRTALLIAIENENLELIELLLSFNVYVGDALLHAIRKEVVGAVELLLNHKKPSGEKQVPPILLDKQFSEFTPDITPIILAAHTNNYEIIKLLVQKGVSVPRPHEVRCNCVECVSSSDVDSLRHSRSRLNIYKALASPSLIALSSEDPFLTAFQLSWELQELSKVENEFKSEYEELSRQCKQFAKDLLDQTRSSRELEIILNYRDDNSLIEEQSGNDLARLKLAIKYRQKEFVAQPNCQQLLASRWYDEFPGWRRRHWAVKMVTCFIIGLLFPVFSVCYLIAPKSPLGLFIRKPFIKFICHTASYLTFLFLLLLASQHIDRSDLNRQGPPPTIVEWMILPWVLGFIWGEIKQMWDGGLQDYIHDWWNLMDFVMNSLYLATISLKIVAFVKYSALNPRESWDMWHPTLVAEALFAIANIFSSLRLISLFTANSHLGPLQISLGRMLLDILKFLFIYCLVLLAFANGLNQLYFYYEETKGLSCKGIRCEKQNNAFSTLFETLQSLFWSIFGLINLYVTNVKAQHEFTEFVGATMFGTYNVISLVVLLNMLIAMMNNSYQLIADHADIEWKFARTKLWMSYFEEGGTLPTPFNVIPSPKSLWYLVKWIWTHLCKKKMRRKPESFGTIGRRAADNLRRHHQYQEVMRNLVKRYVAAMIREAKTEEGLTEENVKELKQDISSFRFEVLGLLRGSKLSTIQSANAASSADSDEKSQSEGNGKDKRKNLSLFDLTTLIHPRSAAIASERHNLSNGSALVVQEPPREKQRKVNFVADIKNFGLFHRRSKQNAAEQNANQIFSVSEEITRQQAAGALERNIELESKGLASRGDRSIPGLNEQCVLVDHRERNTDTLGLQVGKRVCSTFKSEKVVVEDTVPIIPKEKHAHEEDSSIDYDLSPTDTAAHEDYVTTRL
Nature of the test: block of DAMGO-driven TRPC4 calcium entry – cell-based, HEK293 TRPC4/mu-opioid, Fluo-4 calcium, dose response (AID 434942).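 Note: potency of inhibitors blocking the TRPC4 calcium response.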 The test is classed as functional.

Test [2] is described as follows: NIH-3T3 fibroblast cytotoxicity, dose response, cytotoxicity control, cell-based, fluorescence, Alamar Blue, secondary assay (AID 2327).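 Note: NIH-3T3 mouse fibroblasts cultured with fluconazole at 8 µg/mL.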 The test is classed as functional. (The colour change of resazurin is a common sign of viable cells or microbes.)
The target in another test is T2, Aminopeptidase N (Plasmodium falciparum FcB1/Columbia, UniProt O96935).
T2 sequence (O96935 whole entry): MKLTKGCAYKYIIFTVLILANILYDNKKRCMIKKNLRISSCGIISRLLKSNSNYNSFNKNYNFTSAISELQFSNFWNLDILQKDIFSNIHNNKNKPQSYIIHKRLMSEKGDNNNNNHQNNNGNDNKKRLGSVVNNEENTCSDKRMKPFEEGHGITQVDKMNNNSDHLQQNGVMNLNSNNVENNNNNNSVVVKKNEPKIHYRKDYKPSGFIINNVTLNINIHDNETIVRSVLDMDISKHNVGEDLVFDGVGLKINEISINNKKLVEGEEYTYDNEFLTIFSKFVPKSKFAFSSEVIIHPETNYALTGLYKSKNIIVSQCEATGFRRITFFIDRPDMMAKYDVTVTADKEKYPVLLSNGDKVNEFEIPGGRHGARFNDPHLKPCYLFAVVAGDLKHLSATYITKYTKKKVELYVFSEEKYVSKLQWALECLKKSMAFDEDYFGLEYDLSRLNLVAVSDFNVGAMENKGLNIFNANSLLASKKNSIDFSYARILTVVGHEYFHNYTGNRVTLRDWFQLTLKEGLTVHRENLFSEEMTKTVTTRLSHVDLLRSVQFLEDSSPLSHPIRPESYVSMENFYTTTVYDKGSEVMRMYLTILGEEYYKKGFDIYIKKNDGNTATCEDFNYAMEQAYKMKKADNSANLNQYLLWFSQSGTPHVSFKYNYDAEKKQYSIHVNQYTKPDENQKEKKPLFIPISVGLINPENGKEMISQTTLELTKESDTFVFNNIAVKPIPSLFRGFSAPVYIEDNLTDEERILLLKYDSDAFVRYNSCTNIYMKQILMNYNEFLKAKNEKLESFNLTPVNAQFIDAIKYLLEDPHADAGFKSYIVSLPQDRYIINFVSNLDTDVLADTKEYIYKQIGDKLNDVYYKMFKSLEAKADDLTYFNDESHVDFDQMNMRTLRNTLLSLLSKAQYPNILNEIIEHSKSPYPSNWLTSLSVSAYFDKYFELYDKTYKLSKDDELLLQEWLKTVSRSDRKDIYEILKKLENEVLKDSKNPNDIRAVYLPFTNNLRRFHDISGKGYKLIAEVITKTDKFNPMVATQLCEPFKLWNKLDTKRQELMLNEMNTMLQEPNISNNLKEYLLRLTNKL
As to the kind of experiment: malaria alanyl aminopeptidase activity blockers – biochemical, fluorogenic H-Leu-NHMec substrate, 1536-well (AID 1445). More on the design: species or system Plasmodium falciparum 3D7, 3D7.

Test [3] can be described thus: cells. Type of test: functional, cell-based.
Test [4] is described as follows: fluconazole-exposed Candida albicans growth modulators – fluorescence, retest, confirmation (AID 2467). Type of test: functional, cell-based.
Test [5] is described as follows: cells. The test is classed as functional, cell-based. This is another data set of the same source.
Test [6] is described as follows: THP-1 cell cytotoxicity, dose response, cytotoxicity control for non-replicating M. tuberculosis project (AID 489025). The test is classed as functional.
Test [7] in a line: HepG2 cell cytotoxicity, dose response, cytotoxicity control for non-replicating M. tuberculosis project (AID 489018). To be noted: Mycobacterium tuberculosis. The test is classed as functional.
A short description of test [8]: Vero E6 cell cytotoxicity, dose response, cytotoxicity control for non-replicating M. tuberculosis project, secondary assay (AID 492998). Conditions: Vero C1008. The test is classed as functional, VeroE6.
In another test the test system is HEK293. As to the kind of experiment: EBV LMP1 TES2 canonical NF-kB signalling blockers – cell-based, HEK293, luciferase, cherry-pick, dose response (AID 588343). To be noted: Homo sapiens. Type of test: functional.
Test [9] can be described thus: luciferase reporter signal suppression in cells – H4 neuroglioma cells, luminescence, dose response (AID 1990). Type of test: functional, cell-based. In general terms: Reporter assays use an easily measured gene product as a stand-in for the process of interest.
A short description of test [10]: Luminescence Cell-Based Dose Response HTS to Identify Inhibitors of 5'UTR Stem-Loop Driven Prion Protein mRNA Translation in H4 Neuroglioblastoma Cells. [Related pubchem assays: 1827 (Project Summary), 1813 (Primary HTS)]. Type of test: functional.
A short description of test [11]: alpha-synuclein stem-loop luciferase translation blockers – H4 neuroglioma cells, luminescence, confirmation (AID 1988). Type of test: functional, cell-based.
Test [12] addresses Glucose-6-phosphate 1-dehydrogenase (Homo sapiens, UniProt P11413). Nature of the test: inhibition of Homo sapiens G6PD, dose series – biochemical, fluorescence, selectivity assay for P. falciparum G6PD inhibitor project, dose response (AID 504792). The test is classed as functional.
Test [13] addresses T3, Microphthalmia-associated transcription factor (Homo sapiens, UniProt O75030).
T3 sequence (O75030 whole entry): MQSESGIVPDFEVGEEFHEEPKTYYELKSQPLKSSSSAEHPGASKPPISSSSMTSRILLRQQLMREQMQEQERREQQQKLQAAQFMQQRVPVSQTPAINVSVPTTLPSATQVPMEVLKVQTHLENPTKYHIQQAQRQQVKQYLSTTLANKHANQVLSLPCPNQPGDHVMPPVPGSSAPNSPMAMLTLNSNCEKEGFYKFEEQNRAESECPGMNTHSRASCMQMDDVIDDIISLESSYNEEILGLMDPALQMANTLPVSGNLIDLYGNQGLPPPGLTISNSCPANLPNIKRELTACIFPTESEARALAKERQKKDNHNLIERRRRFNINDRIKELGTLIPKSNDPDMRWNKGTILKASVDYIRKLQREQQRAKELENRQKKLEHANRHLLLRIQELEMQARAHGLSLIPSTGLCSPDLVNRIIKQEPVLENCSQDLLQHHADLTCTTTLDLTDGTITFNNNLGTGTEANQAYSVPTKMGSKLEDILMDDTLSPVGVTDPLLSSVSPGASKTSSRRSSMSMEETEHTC
Nature of the test: reducers of TRPM1 reporter luminescence, concentration series – cell-based, SK-MEL-5, cherry-picked, set 3, MITF inhibitor project, dose response (AID 493073).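 Note: SK-MEL-5 melanoma cells with luciferase driven by the MITF target TRPM1 promoter.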 The test is classed as functional.

The test system of the next test is INS1. Nature of the test: INS-1E survival protection against cytokine death – cell-based, luminescence, retest, dose response (AID 449756).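 Note: cell death triggered by IL-1 beta plus TNF-alpha plus IFN-gamma mixture; protective hits raise ATP signal compared with cytokine alone wells.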 The test is classed as functional. To be noted: Rattus norvegicus.
For test [14], the target named is T4, Polyadenylate-binding protein 1 (Homo sapiens, UniProt P11940). Nature of the test: MLLE binding blockers, Cy5 peptide tracer – biochemical, fluorescence polarization, Cy5-PAM2 peptide, secondary, miRNA deadenylation inhibitor project, dose response (AID 602260). Type of test: functional. To be noted: read-out: IC50_Mean. For orientation: Fluorescence polarisation rises when a labelled molecule tumbles more slowly, as on binding a larger partner.
T4 sequence (P11940 whole entry): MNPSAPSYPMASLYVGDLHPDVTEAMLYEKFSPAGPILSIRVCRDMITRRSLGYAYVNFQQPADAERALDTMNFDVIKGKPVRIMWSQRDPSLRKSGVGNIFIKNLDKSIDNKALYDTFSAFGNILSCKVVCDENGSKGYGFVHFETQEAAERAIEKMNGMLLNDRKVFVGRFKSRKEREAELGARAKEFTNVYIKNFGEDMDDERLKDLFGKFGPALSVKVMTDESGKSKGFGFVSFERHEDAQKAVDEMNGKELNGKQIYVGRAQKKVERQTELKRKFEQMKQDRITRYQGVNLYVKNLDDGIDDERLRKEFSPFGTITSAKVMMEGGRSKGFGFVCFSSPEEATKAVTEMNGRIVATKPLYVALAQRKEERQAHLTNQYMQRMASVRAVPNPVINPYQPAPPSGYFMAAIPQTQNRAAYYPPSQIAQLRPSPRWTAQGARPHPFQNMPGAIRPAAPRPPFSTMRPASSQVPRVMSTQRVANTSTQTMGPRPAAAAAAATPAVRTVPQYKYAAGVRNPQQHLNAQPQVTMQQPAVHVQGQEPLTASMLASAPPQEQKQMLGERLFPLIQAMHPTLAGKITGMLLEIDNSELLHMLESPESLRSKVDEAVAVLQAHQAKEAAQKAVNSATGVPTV

The target of test [15] is T4, Polyadenylate-binding protein 1. As to the kind of experiment: MLLE domain peptide-binding blockers, IC50 – biochemical, fluorescence polarization, FITC-PAM2 peptide, dose response (AID 602259). The test is classed as functional. To be noted: read-out: IC50_Mean.
A short description of test [16]: cells. Type of test: functional.

Chain of Glucose-6-phosphate 1-dehydrogenase (P11413 whole entry): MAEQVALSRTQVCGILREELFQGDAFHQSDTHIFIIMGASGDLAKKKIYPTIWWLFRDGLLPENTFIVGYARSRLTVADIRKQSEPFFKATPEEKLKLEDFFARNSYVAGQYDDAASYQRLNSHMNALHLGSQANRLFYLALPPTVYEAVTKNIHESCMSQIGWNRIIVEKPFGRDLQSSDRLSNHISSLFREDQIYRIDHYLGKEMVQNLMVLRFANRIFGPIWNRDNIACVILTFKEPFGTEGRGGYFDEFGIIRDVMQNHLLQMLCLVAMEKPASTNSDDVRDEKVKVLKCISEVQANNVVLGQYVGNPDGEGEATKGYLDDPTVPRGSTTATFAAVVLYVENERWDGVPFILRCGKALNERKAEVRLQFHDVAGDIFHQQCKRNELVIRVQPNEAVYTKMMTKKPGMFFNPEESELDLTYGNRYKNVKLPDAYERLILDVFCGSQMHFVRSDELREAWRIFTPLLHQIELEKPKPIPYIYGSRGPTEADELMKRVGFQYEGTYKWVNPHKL

As for `Cc1ccc(C)c2nc(O)c(CN(CC3CCCO3)C(S)=NCc3ccco3)cc12` (stereo unspecified), the EC50 in test [1] is 2.11 µM (active).
Regarding `O=C(N/N=C/c1cc(Br)ccc1O)c1ccccc1Cl`, the EC50 is > 160 µM (inactive) in test [2], 103 µM (active) in “cells [3]”, > 38 µM (not active) in [4] and > 350 µM (not active) in the test “cells [5]”. Further, on Aminopeptidase N, the IC50 was 8.06 µM (active). Further, the CC50 in test [6] is 2.16 µM (active); in test [7], 8.07 µM (active); in [8], 6.98 µM (active). The AC50 in the test on HEK293 is 18.9 µM (active).
With `COc1ccccc1N1CCN(C(=O)CCC(=O)N2CCN(c3ccc(F)cc3)CC2)CC1`, the AC50 in the test with HEK293 was 186 µM (active).
With `CC(=O)OC1(c2ccccc2)CCN(C2CCCCC2)CC1C` (stereo unspecified), the EC50 in test [1] was 1.06 µM (active).
Consider `C(=N\Nc1nc2ccccc2[nH]1)/c1cccc2nccnc12`, for which the EC50 in test [9] is 18.5 µM (active); in “cells [3]” it was > 350 µM (not active); in test [10], 9.69 µM (active); in test [11], 5.54 µM (active); in “cells [5]” it was > 350 µM (not active). Besides, the AC50 in the test on HEK293 was 105 µM (active).
`CCCn1c(=N)n(CC(=O)C(C)(C)C)c2ccccc21`: in test [1], the EC50 was 5.31 µM (active).
`CCN1CCCC1CNC(=O)c1ccc2c(c1)NC(=O)/C(=C\c1ccc(C)cc1)S2` (stereo unspecified): the EC50 is > 120 µM (not active) in test [9], 16 µM (active) in test [10] and > 120 µM (not active) in test [11]. In test [12], the IC50 is > 80 µM (inactive). Further, the AC50 in test [13] is 18.9 µM (active).
On to `O=C(CCS(=O)(=O)c1ccccc1)Nc1nccs1`, for which the concentration at half-maximal activity (AC50) in the test with HEK293 was 48.6 µM (active).
Consider `NC(=S)N/N=C/c1c(O)ccc2ccccc12`, for which the values for the concentration for a half-maximal effect (EC50) in [9], in test [10] and in test [11] were 24.5 µM (active), 22.8 µM (active) and 11.6 µM (active), respectively. Moreover, the AC50 with INS1 is 1.09 µM (active). The IC50 in test [14] and in test [15] was > 66 µM (inactive) in each case.
In the case of `CCOc1ccc(NC(=O)CCC(=O)N/N=C/c2ccc([N+](=O)[O-])s2)cc1`, in test [13], the AC50 is 6.21 µM (active). Moreover, the IC50 in the test “cells [16]” was 13.6 µM (active).
Turning to `Cc1ccc(-c2c[n+](-c3ccc(SC(F)F)cc3)c3n2CCC3)cc1`, the AC50 was 1.64 µM (active) in [13] and 5.09 µM (active) in the test on INS1.
Consider `Cc1ccc(C2CC2C(=O)NN=C(S)Nc2ccc(Cl)cc2)cc1` (stereo unspecified), for which the IC50 in [14] and in [15] was > 66 µM (inactive) throughout.
As to `CCn1c(N)c(C(=O)NC2CCCCC2)sc1=S`, the IC50 in test [14] and in [15] was > 66 µM (inactive) in each case.
For `O=C(CN1CCN(Cc2ccccc2Cl)CC1)N=Nc1c(O)[nH]c2ccccc12`, in [1], the EC50 is 0.376 µM (active).
For `O=C(/C=C/Nc1cccc(C(F)(F)F)c1)C(F)(F)F`, in the test with HEK293, the AC50 is > 350 µM (inactive).
